Assay results: ChEMBL document CHEMBL1150491, “Chemistry and pharmacokinetics of diarylthiophenes and terphenyls as selective COX-2 inhibitors” (Bioorg Med Chem Lett, 1996)
pIC50: −log10 of the molar value.

How the values were obtained:
[1] = target: T1, Prostaglandin G/H synthase 1 (Ovis aries, UniProt P05979); assay: Compound was evaluated for inhibitory activity against ovine Prostaglandin G/H synthase 1
T1 sequence (P05979 whole entry): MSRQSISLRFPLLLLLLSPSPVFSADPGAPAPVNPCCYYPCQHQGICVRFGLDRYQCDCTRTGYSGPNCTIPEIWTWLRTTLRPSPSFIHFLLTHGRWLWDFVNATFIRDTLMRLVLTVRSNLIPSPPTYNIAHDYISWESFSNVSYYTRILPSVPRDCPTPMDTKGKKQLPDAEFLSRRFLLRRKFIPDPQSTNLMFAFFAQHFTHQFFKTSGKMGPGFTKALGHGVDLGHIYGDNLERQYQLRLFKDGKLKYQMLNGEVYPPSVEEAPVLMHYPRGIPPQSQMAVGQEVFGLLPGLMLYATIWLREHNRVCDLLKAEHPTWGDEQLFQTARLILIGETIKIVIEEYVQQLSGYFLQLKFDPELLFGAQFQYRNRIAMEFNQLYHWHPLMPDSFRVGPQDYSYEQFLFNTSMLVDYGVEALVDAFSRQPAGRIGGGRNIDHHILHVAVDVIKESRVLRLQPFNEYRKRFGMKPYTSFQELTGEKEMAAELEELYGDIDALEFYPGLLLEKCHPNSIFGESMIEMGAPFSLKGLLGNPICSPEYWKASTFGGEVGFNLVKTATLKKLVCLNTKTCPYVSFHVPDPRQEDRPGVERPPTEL

[2] = target: T2, Prostaglandin G/H synthase 2 (Homo sapiens, UniProt P35354); assay: Compound was evaluated for inhibitory activity against human Prostaglandin G/H synthase 2
T2 sequence (P35354 whole entry): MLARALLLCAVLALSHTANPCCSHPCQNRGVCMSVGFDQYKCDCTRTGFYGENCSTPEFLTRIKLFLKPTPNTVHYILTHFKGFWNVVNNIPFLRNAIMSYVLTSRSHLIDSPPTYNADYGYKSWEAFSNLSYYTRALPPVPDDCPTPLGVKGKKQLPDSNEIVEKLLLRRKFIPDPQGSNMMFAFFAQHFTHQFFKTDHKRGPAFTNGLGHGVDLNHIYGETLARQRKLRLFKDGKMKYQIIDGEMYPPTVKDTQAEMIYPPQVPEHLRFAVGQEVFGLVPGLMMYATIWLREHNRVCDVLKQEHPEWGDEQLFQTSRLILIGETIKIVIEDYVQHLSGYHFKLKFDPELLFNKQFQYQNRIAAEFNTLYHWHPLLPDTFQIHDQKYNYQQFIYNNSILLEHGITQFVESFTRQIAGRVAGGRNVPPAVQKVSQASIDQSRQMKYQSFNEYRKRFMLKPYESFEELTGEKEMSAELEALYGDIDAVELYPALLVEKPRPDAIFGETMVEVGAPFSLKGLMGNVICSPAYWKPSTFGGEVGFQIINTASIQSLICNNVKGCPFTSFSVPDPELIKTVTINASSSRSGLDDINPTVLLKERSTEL

[3] = Plasma clearance was evaluated in Sprague-Dawley rats at a dose of 15 mg/kg after iv administration; type: ADME, organism-based; parameters: dose 15 mg/kg, route intravenous; settings: rat
[4] = Oral bioavailability in rat (Sprague-Dawley) (dose 15 mg/kg); type: ADME, organism-based; settings: in vivo
[5] = Half life period was evaluated against Sprague-Dawley rats at a dose of 15 mg/kg after iv administration; type: ADME, organism-based; parameters: dose 15 mg/kg, route intravenous; settings: rat, in vivo
[6] = Time taken to reach maximum concentration in plasma was evaluated in Sprague-Dawley rats at a dose of 15 mg/kg after po administration; type: ADME, organism-based; parameters: dose 15 mg/kg, route oral; settings: rat
[7] = Volume of distribution was evaluated in Sprague-Dawley rats at a dose of 15 mg/kg after iv administration; type: ADME, organism-based; parameters: dose 15 mg/kg, route intravenous; settings: rat, in vivo, read-out: Vss
[8] = Maximum concentration in plasma was evaluated in Sprague-Dawley rats at a dose of 15 mg/kg after po administration; type: ADME, organism-based; parameters: dose 15 mg/kg, route oral; settings: rat
[9] = Half life period was evaluated in Sprague-Dawley rats at a dose of 15 mg/kg after po administration; type: ADME, organism-based; parameters: dose 15 mg/kg, route oral; settings: rat, in vivo
[10] = Bioavailability was evaluated against Cynomolgus monkey at a dose of 15 mg/kg after po administration; type: ADME, organism-based, Macaca fascicularis; settings: in vivo
[11] = Maximum time was evaluated against Cynomolgus monkey at a dose of 15 mg/kg after po administration; type: ADME, organism-based; parameters: dose 15 mg/kg, route oral; settings: cercopithecidae, in vivo
[12] = Area under curve was evaluated against Cynomolgus monkey at a dose of 15 mg/kg after po administration; type: ADME, organism-based; parameters: dose 15 mg/kg, route oral; settings: cercopithecidae, in vivo
[13] = test system: Canis familiaris; assay: Area under curve was evaluated against Beagle dog at a dose of 15 mg/kg after po administration; type: ADME, organism-based, Canis lupus familiaris; parameters: dose 15 mg/kg, route oral; settings: in vivo
[14] = test system: Canis familiaris; assay: Maximum time was evaluated against Beagle dog at a dose of 15 mg/kg after po administration; type: ADME, organism-based, Canis lupus familiaris; parameters: dose 15 mg/kg, route oral; settings: in vivo
[15] = Area under curve was evaluated against man at a dose of 10 mg/kg after po administration; type: ADME, organism-based; parameters: dose 10 mg/kg, route oral; settings: human, in vivo
[16] = Maximum time was evaluated against man at a dose of 10 mg/kg after po administration; type: ADME, organism-based; parameters: dose 10 mg/kg, route oral; settings: human, in vivo
[17] = Half life period was evaluated against man at a dose of 10 mg/kg after po administration; type: ADME, organism-based; parameters: dose 10 mg/kg, route oral; settings: human, in vivo
[18] = Maximum concentration was evaluated against Cynomolgus monkey at a dose of 15 mg/kg after po administration; type: ADME, organism-based; parameters: dose 15 mg/kg, route oral; settings: cercopithecidae, in vivo
[19] = Half life period was evaluated against Cynomolgus monkey at a dose of 15 mg/kg after po administration; type: ADME, organism-based; parameters: dose 15 mg/kg, route oral; settings: cercopithecidae, in vivo
[20] = test system: Canis familiaris; assay: Maximum concentration was evaluated against Beagle dog at a dose of 15 mg/kg after po administration; type: ADME, organism-based, Canis lupus familiaris; parameters: dose 15 mg/kg, route oral; settings: in vivo
[21] = Bioavailability was evaluated against Beagle dog at a dose of 15 mg/kg after po administration; type: ADME, organism-based, Canis lupus familiaris; settings: in vivo
[22] = test system: Canis familiaris; assay: Half life period was evaluated against Beagle dog at a dose of 15 mg/kg after po administration; type: ADME, organism-based, Canis lupus familiaris; parameters: dose 15 mg/kg, route oral; settings: in vivo
[23] = Maximum concentration was evaluated against man at a dose of 10 mg/kg after po administration; type: ADME, organism-based; parameters: dose 10 mg/kg, route oral; settings: human, in vivo

Compound `CS(=O)(=O)c1ccc(-c2cscc2-c2ccccc2)cc1` has a pIC50 [1] of less than 3.00 and a pIC50 [2] of 5.40.

In the case of `CS(=O)(=O)c1ccc(-c2ccsc2-c2ccccc2)cc1`, the pIC50 [1] was less than 3.00 and the pIC50 [2] was 5.40.

In the case of `CS(=O)(=O)c1ccc(-c2cc(CC#N)sc2-c2ccc(F)cc2)cc1`, the pIC50 [1] was less than 3.52 and the pIC50 [2] was 4.31.

`CS(=O)(=O)c1ccc(-c2ccccc2-c2ccccc2)cc1` gave a clearance [3] of 35.8 mL/min/kg, a bioavailability [4] of 60% and a half-life [5] of 1.7 h. It also gave a Tmax [6] of 0.25 h, a Vd [7] of 3.08 L/kg and a Cmax [8] of 1430 ng/mL. The pIC50 [1] was less than 3.00 and the pIC50 [2] was 4.96.

Compound `CS(=O)(=O)c1ccc(-c2ccsc2-c2ccc(F)cc2)cc1` has a clearance [3] of 158 mL/min/kg, a half-life [9] of 12.1 h and a bioavailability [4] of 3.4%. It also gave a half-life [5] of 14.3 h, a Tmax [6] of 4 h and a Vd [7] of 19 L/kg. The Cmax [8] was 8 ng/mL, the pIC50 [1] was 3.31 and the pIC50 [2] was 5.10.

For `CS(=O)(=O)c1ccc(-c2cc(Sc3ccccc3)sc2-c2ccc(F)cc2)cc1`, the pIC50 [1] was less than 3.52 and the pIC50 [2] was 4.18.

`CS(=O)(=O)c1ccc(-c2c(-c3ccccc3)sc3c2CCCC3)cc1` showed a pIC50 [1] of less than 3.00 and a pIC50 [2] of 4.72.

Compound `CS(=O)(=O)c1ccc(-c2cc([N+](=O)[O-])sc2-c2ccc(F)cc2)cc1` has a pIC50 [1] of less than 3.00 and a pIC50 [2] of 4.85.

`c1ccc(-c2ccsc2-c2ccccc2)cc1` gave a clearance [3] of 51.3 mL/min/kg, a bioavailability [4] of 20% and a half-life [5] of 4.94 h. The Tmax [6] was 4.2 h, the Vd [7] was 19.6 L/kg and the Cmax [8] was 100 ng/mL. The pIC50 [1] was 4.55 and the pIC50 [2] was less than 3.52.

For `CS(=O)(=O)c1ccc(-c2cscc2-c2ccc(S(C)(=O)=O)cc2)cc1`, the pIC50 [1] was less than 3.52 and the pIC50 [2] was less than 3.52.

Compound `CS(=O)(=O)c1ccc(-c2cc(CCC(=O)O)sc2-c2ccc(F)cc2)cc1` has a pIC50 [1] of 4.92 and a pIC50 [2] of less than 3.52.

In the case of `CS(=O)(=O)c1ccc(-c2cscc2-c2ccc(F)cc2)cc1`, the pIC50 [1] was 3.17 and the pIC50 [2] was 5.10.

With `CCOC(=O)/C=C/c1cc(-c2ccc(S(C)(=O)=O)cc2)c(-c2ccc(F)cc2)s1` the pIC50 [1] was 4.00 and the pIC50 [2] was less than 3.52.

With `CS(=O)(=O)c1ccc(-c2cc(N)sc2-c2ccc(F)cc2)cc1` the pIC50 [1] was 5.22 and the pIC50 [2] was 5.52.

For `COc1ccc(-c2sccc2-c2ccc(S(C)(=O)=O)cc2)cc1`, the pIC50 [1] was 4.32 and the pIC50 [2] was 5.30.

`CS(=O)(=O)c1ccc(-c2cc(S(C)(=O)=O)sc2-c2ccc(F)cc2)cc1` showed a pIC50 [1] of less than 3.52 and a pIC50 [2] of 3.70.

`CSc1ccc(-c2cscc2-c2ccc(S(C)(=O)=O)cc2)cc1` gave a pIC50 [1] of 4.03 and a pIC50 [2] of 5.22.

`CSc1ccc(-c2cscc2-c2ccc(SC)cc2)cc1` gave a pIC50 [1] of 4.82 and a pIC50 [2] of 4.00.

Work on `COc1ccc(-c2cscc2-c2ccc(S(C)(=O)=O)cc2)cc1` yielded a pIC50 [1] of less than 3.00 and a pIC50 [2] of 5.30.

Work on `CS(=O)(=O)c1ccc(-c2ccsc2-c2ccc(O)cc2)cc1` yielded a pIC50 [1] of 3.53 and a pIC50 [2] of 4.07.

With `Cc1ccc(-c2cscc2-c2ccc(S(C)(=O)=O)cc2)cc1` the pIC50 [1] was 3.36 and the pIC50 [2] was 5.40.

`Cc1ccc(-c2sccc2-c2ccc(S(C)(=O)=O)cc2)cc1` showed a pIC50 [1] of less than 3.00 and a pIC50 [2] of 4.89.

`CCOC(=O)CCc1cc(-c2ccc(S(C)(=O)=O)cc2)c(-c2ccc(F)cc2)s1` showed a pIC50 [1] of 3.70 and a pIC50 [2] of 3.89.

Work on `Cc1cc(-c2ccc(S(C)(=O)=O)cc2)c(-c2ccc(F)cc2)s1` yielded a clearance [3] of 28.2 mL/min/kg, a bioavailability [4] of 0.9% and a half-life [5] of 19.4 h. It also gave a Tmax [6] of 0.7 h, a Vd [7] of 16.8 L/kg and a Cmax [8] of 20 ng/mL. For the same compound, the pIC50 [1] was 4.10 and the pIC50 [2] was 5.00.

In the case of `CS(=O)(=O)c1ccc(-c2cc(Br)sc2-c2ccc(F)cc2)cc1` [DUP-697], the bioavailability [10] was 30.4%, the Tmax [11] was 24 h and the clearance [3] was 3.63 mL/min/kg. It also gave an AUC [12] of 56 µg·h/mL, an AUC [13] of 1.5 µg·h/mL and a half-life [9] of 16.6 h. For the same compound, the bioavailability [4] was 75%, the half-life [5] was 22 h and the T max [14] was 1 h. For the same compound, the Tmax [6] was 8 h, the Vd [7] was 6.3 L/kg and the AUC [15] was 3240 µg·h/mL. The Cmax [8] was 2400 ng/mL, the Tmax [16] was 3 h and the half-life [17] was 292 h. The Cmax [18] was 698 ng/mL, the half-life [19] was 31.8 h and the Cmax [20] was 411 ng/mL. For the same compound, the bioavailability [21] was 4.4%, the T1/2 [22] was 6 h and the Cmax [23] was 60.5 ng/mL.
